These results are taken from PMC10299677, “Fluorinated Benzofuran and Dihydrobenzofuran as Anti-Inflammatory and Potential Anticancer Agents” (International Journal of Molecular Sciences, 2023).

Entries after “also recorded” stand apart in the source; their conditions may differ.

One experiment has as its system CCL2. Description: CCL2 release in LPS-treated macrophages (BMDM). It counts as cell-based, C57BL/6J mice. To be noted: for effect on CCL2 secretion: 10 µM for compound 1, 50 µM for others, LPS 24 h; for IC50: Mus musculus, Macrophage, compounds 30 min prior to 10 ng/mL LPS for 24 h. The procedure:
(§1) C57BL/6J (10–15 weeks old) male mice were obtained from the animal care facility at the American University of Beirut. All animal procedures were performed following the recommendations of the IACUC (Institutional Animal Care and Use Committee approval 16-09-M379). BMDMs were prepared and characterized as described previously by our group. BMDMs were isolated from C57BL/6J mice by flushing the femur and tibia with RPMI-1640 culture media (Sigma-Aldrich R7388), and cells were collected and centrifuged at 300× g for 5 min. The supernatant was discarded, and the pellet was resuspended in 2 mL red blood lysis 10% (Sigma-Aldrich R7767) medium in PBS and incubated for 5 min at room temperature. After diluting the suspension of cells with 5 mL of RPMI containing 10% FBS and 1% penicillin–streptomycin, cells were centrifuged at 300× g for 5 min, and the cell pellet was resuspended in RPMI media containing 10% FBS supplemented with 15% L929-conditioned medium containing macrophage-colony stimulating factor (M-CSF1) and plated on […]. Cells were allowed to proliferate and differentiate for 5–6 days. Cells were harvested, washed, and allowed to adhere overnight in RPMI containing 10% FBS for treatment. Cells were previously characterized by flow cytometry as macrophages using this method. […] Cells were plated at 0.8 × 10^6 cells per 3.8 cm^2 well [27].
(§2) BMDMs were then treated with different concentrations of the benzofuran and dihydrobenzofuran derivatives for 30 min prior to the addition of 10 ng/mL LPS for 24 h. […] The supernatants were assessed for IL-6, PGE2, CCL2, and nitrite, the stable derivative of NO, as described previously.
(§3) IL-6, CCL2, nitrite (for NO), and PGE2 concentrations from 3–5 independent experiments were expressed as percentage of LPS alone and as mean ± SEM. COX activity was determined as percentage of PGE2 produced from exogenous arachidonic acid. Curve fitting and calculation of IC50 values were performed using GraphPad Prism (version 9.5.1 Software, La Jolla, CA, USA).

The next experiment has as its system COX-2 protein expression. Nature of the experiment: COX-2 protein expression in LPS-treated macrophages (Western blot). It is filed as cell-based, C57BL/6J mice. As to conditions: 10 µM for compounds 1, 7, 9, 50 µM for others, LPS 24 h. Here is the method: (§4) Figure 4 Effects of the fluorinated benzofuran and dihydrobenzofuran on COX-2 and NOS2 protein expressions. COX-2 and NOS2 protein expressions were assessed in macrophages incubated with only 10 µM for compounds 1, 7, and 9, and 50 µM for the other compounds, for 30 min prior to the addition of 10 ng/mL LPS for 24 h. β-actin was used as a loading control, and densitometric analysis was performed using ImageJ software (NIH, MA). Data are expressed as fold of LPS-treated macrophages and represented as mean ± SEM of 4 different experiments; * p < 0.05 versus LPS (one-way ANOVA followed by Dunnett’s test).
(§5) Macrophages were incubated with the compounds for 30 min prior to the addition of 10 ng/mL LPS for 24 h. Protein levels for COX-2 and NOS2 were detected in LPS-stimulated macrophages. As previously described, 10 µg of total protein was assessed. The primary antibodies were developed and characterized as previously described: for COX-2, mouse monoclonal antibody anti-COX-2 (clone COX-214, 1/5000); for NOS2, rabbit polyclonal antibody anti-NOS2 (dilution1/2000 [33]). Antibodies anti-phospho-NF-κB (3033S), phospho-IκBα (9246S), and total IκBα (4814S) were from Cell Signaling Technologies (Danvers, MA, USA). Total NF-κB C-20 (sc-372) was from Santa Cruz Biotechnologies (Dallas, TX, USA), and mouse β-actin (dilution 1/10,000) (Sigma-Aldrich, A5441). Clarity™ western ECL substrate (Bio-Rad Laboratories 10-5061) was used according to the manufacturer’s instructions to reveal positive bands visualized using Bio-Rad ChemiDoc. For Bcl-2 and cleaved PARP-1, HCT116 cells were plated in 6-well plates (200,000 cells per well) for 24 h, and treated with compounds 1 and 2 at 10, 25, and 50 µM for 72 h. Supernatants and cells were collected and lysed using RIPA lysis buffer containing inhibitors of protease. Western blot of Bcl-2 and cleaved PARP-1 was performed using 25 µg of total protein with a rabbit polyclonal antibody anti-Bcl-2 (1/500) (Santa Cruz Biotechnology, sc-492), rabbit polyclonal antibody anti-PARP-1 (1/1000) (Santa Cruz Biotechnology, sc-7150), and mouse anti-β-actin (dilution 1/10,000) (Sigma-Aldrich, A5441).
(§6) Densitometric analyses were performed using ImageJ software (NIH, MA, USA). The ratio of the different analyzed bands to β-actin was determined and data are represented as fold change compared to the LPS-treated cells. Percentage of viable cells for proliferation assay was determined as percentage to control (non-treated cells). For TUNEL assay, apoptotic cells were quantified, and results were expressed as percentage to positive cells (cleaved DNA) compared to control (non-treated cells). Statistical analysis was performed using one-way ANOVA, followed by Dunnett’s multiple comparisons test using GraphPad Prism software. Differences were considered significant when p < 0.05.

Another experiment has as its system CCL2 mRNA. Description: LPS-dependent CCL2 mRNA in THP-1-derived macrophages (RT-PCR). It is filed as cell-based, human. To be noted: 50 µM, 10 ng/ml LPS 6 h. Here is the method:
(§7) F i g u re S3: Eff ect of benzofuran compounds on the lev els of LP S -dependent mRNA of CCL2 and IL-6 in THP-1 –deriv ed macrophages. Human-monoc yti c cell l ine-THP-1 wer e treat ed with PMA (25 nM for 48 hours) th en in cub ated with 50 μM compounds for 30 minutes b efo re the addit ion of 10 ng/ml LP S fo r 6 hours. Gene ex pression of IL6 and CCL2 were measur ed by RT-PCR and the v alu es wer e nor mal ized to GAPDH. Results represent means ± SEM by one way ANOVA followed by Dunnett test.

The subject of a further experiment is IL-6 mRNA. Description: LPS-dependent IL-6 mRNA in THP-1-derived macrophages (RT-PCR). It is filed as cell-based, human. As to conditions: 50 µM, 10 ng/ml LPS 6 h. Here is the method: as §7
Another experiment deals with PARP-1. Nature of the experiment: Cleaved PARP-1 protein in HCT116 (Western blot). As to conditions: 10, 25 and 50 µM, 72 h. It is filed as cell-based, human. Here is the method:
as §5, with “Western blot of Bcl-2 and cleaved PARP-1 was performed using 25 µg of total protein with a rabbit polyclonal antibody anti-Bcl-2 (1/500) (Santa Cruz Biotechnology, sc-492), rabbit polyclonal antibody anti-PARP-1 (1/1000) (Santa Cruz Biotechnology, sc-7150), and mouse anti-β-actin (dilution 1/10,000) (Sigma-Aldrich, A5441).” left out
For orientation: A western blot detects proteins with antibodies after separation by electrophoresis.

Another experiment concerns PGE2. Description: PGE2 release in LPS-treated macrophages (BMDM). It is filed as cell-based, C57BL/6J mice. As to conditions: for blocking of PGE2 formation in response to LPS: 50 µM; for blocking of PGE2 formation in response to LPS / effect on PGE2 production in response to LPS: 10 ng/mL LPS 24 h; for IC50: compounds 30 min prior to 10 ng/mL LPS for 24 h; for effect on PGE2 production in response to LPS: 10 µM for compounds 1, 7, 9, 50 µM for others. The procedure: as §1, §2, §3

The test system of another experiment is NOS2 protein expression. Nature of the experiment: NOS2 protein expression in LPS-treated macrophages (Western blot). To be noted: 50 µM, LPS 24 h. It is filed as cell-based, C57BL/6J mice. The procedure: as §4, §5
as §6, with “Differences were considered significant when p < 0.05.” left out

The IC50 is the concentration at which inhibition is half-maximal. A low value points to greater potency. `COC(=O)/C=C1/Oc2ccc(Br)cc2C1(F)F` [Compound 1]: in the experiment with CCL2, the “effect on CCL2 secretion” value was “moderate effect” and the IC50 came to 8000 nM. Besides, the “effect on LPS-induced COX-2 protein expression” value with COX-2 protein expression is reported as “loss of this inhibitory effect”. The “effect on CCL2 mRNA levels” value with CCL2 mRNA is reported as “decreased significantly”. Also, the “effect on IL-6 mRNA levels” value in the experiment with IL-6 mRNA is “decreased significantly”. For the same compound, the “protein level of cleaved PARP-1” value in the experiment on PARP-1 is recorded as “increase”.
Regarding `O=C(O)/C=C1/Oc2ccc(Br)cc2C1(F)F` [Compound 2], the “blocking of PGE2 formation in response to LPS” value with PGE2 is listed as “more than 50%”. The IC50 amounted to 1920 nM in the experiment with PGE2 (Mus musculus, Macrophage); 1910 nM with PGE2; 1520 nM with CCL2. Besides, the “effect on CCL2 secretion” value in the experiment on CCL2 is given as “significant decreases”. Also, the “effect on LPS-induced COX-2 protein expression” value in the experiment on COX-2 protein expression is listed as “significantly decreased”. Also, in the experiment on NOS2 protein expression, the “effect on LPS-dependent NOS2 protein expression” value was “inhibition”. The “effect on CCL2 mRNA levels” value in the experiment on CCL2 mRNA is “decreased significantly”. In addition, the “effect on IL-6 mRNA levels” value with IL-6 mRNA is recorded as “decreased significantly”. Also, the “protein level of cleaved PARP-1” value with PARP-1 is reported as “increase”.
Consider `O=C(O)/C=C1\Oc2ccc(Br)cc2C1(F)F` [Compound 3], for which, in the experiment on PGE2, the “blocking of PGE2 formation in response to LPS” value is reported as “more than 50%”. In addition, the IC50 in the experiment on PGE2 (Mus musculus, Macrophage) is 1480 nM; in the experiment with CCL2 it was 1500 nM. Besides, the “effect on CCL2 secretion” value in the experiment with CCL2 is given as “significant decreases”. In the experiment on NOS2 protein expression, the “effect on LPS-dependent NOS2 protein expression” value is listed as “inhibition”. The “effect on IL-6 mRNA levels” value in the experiment on IL-6 mRNA is reported as “to a lesser extent”.
As for `O=C(O)Cc1oc2ccc(-c3ccccc3)cc2c1F` [Compound 5], the “effect on PGE2 production in response to LPS” value (from here on “effect on PGE2 production”) in the experiment on PGE2 is given as “very potent inhibitors”. Besides, the IC50 in the experiment with PGE2 (Mus musculus, Macrophage) amounted to 1920 nM. For the same compound, the “effect on LPS-induced COX-2 protein expression” value with COX-2 protein expression is on record as “no effect”. The “effect on LPS-dependent NOS2 protein expression” value with NOS2 protein expression is recorded as “no effect”.
`C=C(C)c1ccc2oc(CC(=O)O)c(F)c2c1` [Compound 6]: the “effect on PGE2 production” value in the experiment on PGE2 was “very potent inhibitors”. For the same compound, the IC50 with PGE2 (Mus musculus, Macrophage) was determined as 1120 nM. Further, the “effect on LPS-induced COX-2 protein expression” value in the experiment with COX-2 protein expression is “no effect”. Further, the “effect on LPS-dependent NOS2 protein expression” value in the experiment with NOS2 protein expression is on record as “no effect”.
As for `COC(=O)CC1(O)Oc2ccc(Br)cc2C1(F)F` (stereo not shown) [Compound 8], the “effect on PGE2 production” value in the experiment with PGE2 was “inhibited partial; also recorded: partial inhibition”. Further, in the experiment with PGE2 (Mus musculus, Macrophage), it took 20500 nM to reach half-maximal inhibition (IC50). For the same compound, in the experiment on CCL2, the “effect on CCL2 secretion” value was “significant decreases” and the IC50 amounted to 19300 nM.
